Measurements published in ChEMBL document CHEMBL1134142, “Prodrugs of 3-amido bearing pseudomycin analogues: novel antifungal agents” (Bioorg Med Chem Lett, 2001).
Values after ≈ are worked out from the molar mass of the structure shown. Bridge positions count the residues as written; N and C are the ends. Square brackets hold non-standard residues; d marks the D form. Side chains are listed from the residue outwards. Peptide text beside a SMILES is read from it. * marks the point of attachment. Tetradecanoyl(3R-OH) = CCCCCCCCCCC[C@@H](O)CC(=O)*; Asp(3S-OH) = N[C@H](C(=O)O)[C@H](O)C(=O)O; Thr(4-Cl) = N[C@H](C(=O)O)[C@H](O)CCl; aThr = C[C@H](O)[C@H](N)C(=O)O; dDab = NCC[C@@H](N)C(=O)O; NHCH2CH2NMe2 = CN(C)CCN*; Dab = NCC[C@H](N)C(=O)O; Dhb = C/C=C(\N)C(=O)O; X1 = CCN(CC)CCN*; NHcPr = C1CC1N*

Legend:
[1] = The compound was tested for toxicity in tail vein irritation model; No; settings: mouse
Candida albicans = experiment: Minimum inhibitory concentration against Candida albicans.; type: functional
Cryptococcus neoformans [2] = experiment: Minimum inhibitory concentration against Cryptococcus neoformans.
Aspergillus fumigatus = experiment: Minimum inhibitory concentration against Aspergillus fumigatus; type: functional
Mus musculus [3] = experiment: (§1) Compound was evaluated in vivo for its effective dose against cryptococosis; type: functional
Mus musculus [4] = experiment: Compound was evaluated in vivo for its effective dose against Murine candidiasis; type: functional
Mus musculus [5] = species: Mus musculus; experiment: Maximum tolerated dose against tail vein irritation determined by dose elevation study; type: functional
[6] = The compound was tested for toxicity in tail vein irritation model; Yes; settings: mouse
Cryptococcus neoformans [7] = experiment: as §1; type: functional

MIC (Candida albicans)	MIC (Cryptococcus neoformans [2])	MIC (Aspergillus fumigatus)	SMILES	Toxicity [1]	ED50 (Mus musculus [3])	ED50 (Mus musculus [4])	Dose elevation (Mus musculus [5])	Toxicity [6]	ED50 (Cryptococcus neoformans [7])
20 µg/mL (≈ 12.2 µM)	20 µg/mL (≈ 12.2 µM)	20 µg/mL (≈ 12.2 µM)	C/C=C1\NC(=O)[C@H]([C@H](C)O)NC(=O)[C@H](CCNC(=O)OCOC(=O)C(C)C)NC(=O)[C@H](CCCCNC(=O)OCOC(=O)C(C)C)NC(=O)[C@H](CC(N)=O)NC(=O)[C@@H](CCNC(=O)OCOC(=O)C(C)C)NC(=O)[C@@H](NC(=O)C[C@H](O)CCCCCCCCCCC)COC(=O)[C@H]([C@H](O)CCl)NC(=O)[C@H]([C@H](O)C(=O)O)NC1=O	Not toxic	–	–	–	–	–
20 µg/mL (≈ 11.7 µM)	20 µg/mL (≈ 11.7 µM)	20 µg/mL (≈ 11.7 µM)	C/C=C1\NC(=O)[C@H]([C@H](C)O)NC(=O)[C@H](CCNC(=O)OCOC(=O)C(C)C)NC(=O)[C@H](CCCCNC(=O)OCOC(=O)C(C)C)NC(=O)[C@H](CC(=O)NC(C)(C)CC)NC(=O)[C@@H](CCNC(=O)OCOC(=O)C(C)C)NC(=O)[C@@H](NC(=O)C[C@H](O)CCCCCCCCCCC)COC(=O)[C@H]([C@H](O)CCl)NC(=O)[C@H]([C@H](O)C(=O)O)NC1=O	Not toxic	–	–	–	–	–
20 µg/mL (≈ 11.5 µM)	20 µg/mL (≈ 11.5 µM)	20 µg/mL (≈ 11.5 µM)	C/C=C1\NC(=O)[C@H]([C@H](C)O)NC(=O)[C@H](CCNC(=O)OCOC(=O)C(C)C)NC(=O)[C@H](CCCCNC(=O)OCOC(=O)C(C)C)NC(=O)[C@H](CC(=O)NCCN(CC)CC)NC(=O)[C@@H](CCNC(=O)OCOC(=O)C(C)C)NC(=O)[C@@H](NC(=O)C[C@H](O)CCCCCCCCCCC)COC(=O)[C@H]([C@H](O)CCl)NC(=O)[C@H]([C@H](O)C(=O)O)NC1=O	Not toxic	–	–	–	–	–
–	–	–	C/C=C1\NC(=O)[C@H]([C@H](C)O)NC(=O)[C@H](CCNC(=O)OCOC(=O)C(C)(C)C)NC(=O)[C@H](CCCCNC(=O)OCOC(=O)C(C)(C)C)NC(=O)[C@H](CC(=O)NCC(=O)OC)NC(=O)[C@@H](CCNC(=O)OCOC(=O)C(C)(C)C)NC(=O)[C@@H](NC(=O)C[C@H](O)CCCCCCCCCCC)COC(=O)[C@H]([C@H](O)CCl)NC(=O)[C@H]([C@H](O)C(=O)O)NC1=O	Not toxic	> 5 mg/kg	< 5 mg/kg	125 mg/kg	–	–
–	–	–	C/C=C1\NC(=O)[C@H]([C@H](C)O)NC(=O)[C@H](CCNC(=O)OCOC(=O)C(C)C)NC(=O)[C@H](CCCCNC(=O)OCOC(=O)C(C)C)NC(=O)[C@H](CC(=O)NCC(=O)OC)NC(=O)[C@@H](CCNC(=O)OCOC(=O)C(C)C)NC(=O)[C@@H](NC(=O)C[C@H](O)CCCCCCCCCCC)COC(=O)[C@H]([C@H](O)CCl)NC(=O)[C@H]([C@H](O)C(=O)O)NC1=O	Not toxic	–	< 5 mg/kg	125 mg/kg	–	–
–	–	–	C/C=C1\NC(=O)[C@H]([C@H](C)O)NC(=O)[C@H](CCNC(=O)OCOC(=O)C(C)C)NC(=O)[C@H](CCCCNC(=O)OCOC(=O)C(C)C)NC(=O)[C@H](CC(=O)NCCN(C)C)NC(=O)[C@@H](CCNC(=O)OCOC(=O)C(C)C)NC(=O)[C@@H](NC(=O)C[C@H](O)CCCCCCCCCCC)COC(=O)[C@H]([C@H](O)CCl)NC(=O)[C@H]([C@H](O)C(=O)O)NC1=O	Not toxic	–	6.6 mg/kg	125 mg/kg	–	–
–	–	–	C/C=C1\NC(=O)[C@H]([C@H](C)O)NC(=O)[C@H](CCNC(=O)OCOC(=O)C(C)(C)C)NC(=O)[C@H](CCCCNC(=O)OCOC(=O)C(C)(C)C)NC(=O)[C@H](CC(=O)NCCN(C)C)NC(=O)[C@@H](CCNC(=O)OCOC(=O)C(C)(C)C)NC(=O)[C@@H](NC(=O)C[C@H](O)CCCCCCCCCCC)COC(=O)[C@H]([C@H](O)CCl)NC(=O)[C@H]([C@H](O)C(=O)O)NC1=O	Not toxic	0.44 mg/kg	< 5 mg/kg	–	–	–
–	–	–	C/C=C1\NC(=O)[C@H]([C@H](C)O)NC(=O)[C@H](CCNC(=O)OCOC(=O)C(C)C)NC(=O)[C@H](CCCCNC(=O)OCOC(=O)C(C)C)NC(=O)[C@H](CC(=O)NC2CC2)NC(=O)[C@@H](CCNC(=O)OCOC(=O)C(C)C)NC(=O)[C@@H](NC(=O)C[C@H](O)CCCCCCCCCCC)COC(=O)[C@H]([C@H](O)CCl)NC(=O)[C@H]([C@H](O)C(=O)O)NC1=O	Not toxic	0.56 mg/kg	< 5 mg/kg	125 mg/kg	–	–
0.312 µg/mL (≈ 0.244 µM)	< 0.01 µg/mL	> 20 µg/mL	C/C=C1\NC(=O)[C@H]([C@H](C)O)NC(=O)[C@H](CCN)NC(=O)[C@H](CCCCN)NC(=O)[C@H](CC(=O)NC(C)(C)CC)NC(=O)[C@@H](CCN)NC(=O)[C@@H](NC(=O)C[C@H](O)CCCCCCCCCCC)COC(=O)[C@H]([C@H](O)CCl)NC(=O)[C@H]([C@H](O)C(=O)O)NC1=O	–	–	–	–	Active	–
–	–	–	C/C=C1\NC(=O)[C@H]([C@H](C)O)NC(=O)[C@H](CCNC(=O)OCOC(=O)C(C)(C)C)NC(=O)[C@H](CCCCNC(=O)OCOC(=O)C(C)(C)C)NC(=O)[C@H](CC(=O)NC2CC2)NC(=O)[C@@H](CCNC(=O)OCOC(=O)C(C)(C)C)NC(=O)[C@@H](NC(=O)C[C@H](O)CCCCCCCCCCC)COC(=O)[C@H]([C@H](O)CCl)NC(=O)[C@H]([C@H](O)C(=O)O)NC1=O	Not toxic	–	< 5 mg/kg	–	–	–
–	–	–	C/C=C1\NC(=O)[C@H]([C@H](C)O)NC(=O)[C@H](CCN)NC(=O)[C@H](CCCCN)NC(=O)[C@H](CC(=O)NCCN(C)C)NC(=O)[C@@H](CCN)NC(=O)[C@@H](NC(=O)C[C@H](O)CCCCCCCCCCC)COC(=O)[C@H]([C@H](O)CCl)NC(=O)[C@H]([C@H](O)C(=O)O)NC1=O ({Tetradecanoyl(3R-OH)}-S[dDab]D(NHCH2CH2NMe2)K[Dab][aThr][Dhb][Asp(3S-OH)][Thr(4-Cl)]; ester 1-C)	Not toxic	2.5 mg/kg	< 5 mg/kg	50 mg/kg	–	–
–	–	–	C/C=C1\NC(=O)[C@H]([C@H](C)O)NC(=O)[C@H](CCN)NC(=O)[C@H](CCCCN)NC(=O)[C@H](CC(=O)NC2CC2)NC(=O)[C@@H](CCN)NC(=O)[C@@H](NC(=O)C[C@H](O)CCCCCCCCCCC)COC(=O)[C@H]([C@H](O)CCl)NC(=O)[C@H]([C@H](O)C(=O)O)NC1=O ({Tetradecanoyl(3R-OH)}-S[dDab]D(NHcPr)K[Dab][aThr][Dhb][Asp(3S-OH)][Thr(4-Cl)]; ester 1-C)	Not toxic	2.9 mg/kg	< 5 mg/kg	50 mg/kg	–	–
10 µg/mL (≈ 7.66 µM)	< 0.01 µg/mL	10 µg/mL (≈ 7.66 µM)	C/C=C1\NC(=O)[C@H]([C@H](C)O)NC(=O)[C@H](CCN)NC(=O)[C@H](CCCCN)NC(=O)[C@H](CC(=O)NCCN(CC)CC)NC(=O)[C@@H](CCN)NC(=O)[C@@H](NC(=O)C[C@H](O)CCCCCCCCCCC)COC(=O)[C@H]([C@H](O)CCl)NC(=O)[C@H]([C@H](O)C(=O)O)NC1=O ({Tetradecanoyl(3R-OH)}-S[dDab]D(X1)K[Dab][aThr][Dhb][Asp(3S-OH)][Thr(4-Cl)]; ester 1-C)	–	–	–	–	Active	–
–	–	–	C/C=C1\NC(=O)[C@H]([C@H](C)O)NC(=O)[C@H](CCN)NC(=O)[C@H](CCCCN)NC(=O)[C@H](CC(=O)NCC(=O)OC)NC(=O)[C@@H](CCN)NC(=O)[C@@H](NC(=O)C[C@H](O)CCCCCCCCCCC)COC(=O)[C@H]([C@H](O)CCl)NC(=O)[C@H]([C@H](O)C(=O)O)NC1=O ({Tetradecanoyl(3R-OH)}-S[dDab]D([Gly-OMe])K[Dab][aThr][Dhb][Asp(3S-OH)][Thr(4-Cl)]; ester 1-C)	Not toxic	2.9 mg/kg	< 5 mg/kg	<50 mg/kg	–	–
2.5 µg/mL (≈ 2.07 µM)	< 0.01 µg/mL	10 µg/mL (≈ 8.29 µM)	C/C=C1\NC(=O)[C@H]([C@H](C)O)NC(=O)[C@H](CCN)NC(=O)[C@H](CCCCN)NC(=O)[C@H](CC(N)=O)NC(=O)[C@@H](CCN)NC(=O)[C@@H](NC(=O)C[C@H](O)CCCCCCCCCCC)COC(=O)[C@H]([C@H](O)CCl)NC(=O)[C@H]([C@H](O)C(=O)O)NC1=O ({Tetradecanoyl(3R-OH)}-S[dDab]NK[Dab][aThr][Dhb][Asp(3S-OH)][Thr(4-Cl)]; ester 1-C)	–	–	–	–	Active	–

SMILES	MIC (Candida albicans)	MIC (Cryptococcus neoformans [2])	MIC (Aspergillus fumigatus)	Toxicity [1]	ED50 (Mus musculus [3])	ED50 (Mus musculus [4])	Dose elevation (Mus musculus [5])	Toxicity [6]	ED50 (Cryptococcus neoformans [7])
C/C=C1\NC(=O)[C@H]([C@H](C)O)NC(=O)[C@H](CCN)NC(=O)[C@H](CCCCN)NC(=O)[C@H](CC(=O)O)NC(=O)[C@@H](CCN)NC(=O)[C@@H](NC(=O)C[C@H](O)CCCCCCCCCCC)COC(=O)[C@H]([C@H](O)CCl)NC(=O)[C@H]([C@H](O)C(=O)O)NC1=O [PSEUDOMYCIN B] ({Tetradecanoyl(3R-OH)}-S[dDab]DK[Dab][aThr][Dhb][Asp(3S-OH)][Thr(4-Cl)]; ester 1-C)	0.625 µg/mL (≈ 0.517 µM)	0.01 µg/mL (≈ 0.00828 µM)	20 µg/mL (≈ 16.6 µM)	–	–	–	20 mg/kg	Active	1.8 mg/kg
